25 molecules from US20240400515A1, “NPM1-DEPENDING LEUKEMIA AGENTS” (UNIVERSIDAD COMPLUTENSE DE MADRID, priority 2021, published 2024) can be followed below.

The subject of assay [1] is OCI-AML3 (NPM1 C+). In words: Viability assay (WST-1) in OCI-AML3 cell line. The class given is cell-based. As to conditions: Homo sapiens, OCI-AML-3, viability percentage relative to vehicle, 24 h. The procedure: (§1) Two different acute myeloid leukemia cell lines, OCI-AML3 (NPM1 C+) and MOLM13 (NPM1 C−) were obtained from the DSMZ cell repository (Braunschweig, Germany). Cell lines were expanded and cryogenically frozen upon acquisition to establish stocks in liquid nitrogen until use. Cultured cells were maintained at 37° C. in a humidified incubator in an atmosphere of 5% CO2 and passaged every 2-3 days. RPMI media (Gibco/Life Technologies; Grand Island, NY) supplemented with 10% fetal bovine serum (FBS) (Hyclone) and 1% penicillin/streptomycin was used.
(§2) The sensitivity of the compounds on OCI-AML3 (NPM1 C+) and MOLM13 (NPM1 C−) cell viability was assessed as an in-vitro acute myeloid leukemia (AML) model. Briefly, cells were seeded at a density of 2×10^4 cells/100 μL/well in 96-well plates. Cell lines were treated for 24 h with the test compound diluted in DMSO at the concentration of 5 μM or vehicle (DMSO). Then, 10 μL of WST-1 solution ((2-(4-iodophenyl)-3-(4-nitrophenyl)-5-(2,4-disulfophenyl)-2H-tetrazolium monosodium salt, Merck) were added and the cells were incubated for 4 h at 37° C. The absorbance was measured at 450 nm using an Asys UVM 340 microplate reader (Biochrom Ltd., Cambridge, UK). The background absorbance of blank wells containing only medium was subtracted from each test well. The data were reported as viability percentage relative to vehicle, obtained from two or three independent experiments performed in triplicate (Table 1).

Assay [2] has as its system MOLM13 (NPM1 C−). In words: Viability assay (WST-1) in MOLM13 cell line. The class given is cell-based. As to conditions: Homo sapiens, MOLM-13, viability percentage relative to vehicle, 24 h. The procedure: as §1, §2
(In general: Tetrazolium assays rely on reduction of a dye to a coloured formazan, in cell work by metabolically active cells.)

With `Cc1ccc([C@H]2Cc3c(c4ccccc4n3C)[C@@H](CCNCC3CC3)[C@@H]2N)cc1` [Ial, (2R,3R,4R)-4-{2-[(Cyclopropylmethyl)amino]ethyl}-9-methyl-2-(4-methylphenyl)-2,3,4,9-tetrahydro-1H-carbazol-3-amine], the viability at 5 µM was found to be 22 ± 2% in assay [1] and 17% in assay [2].

Regarding `Cc1ccc([C@H]2Cc3[nH]c4ccccc4c3[C@@H](CCNCC3CC(F)(F)C3)[C@@H]2N)cc1` [Iu, (2R,3R,4R)-4-(2-{[(3,3-Difluorocyclobutyl)methyl]amino}ethyl)-2-(4-methylphenyl)-2,3,4,9-tetrahydro-1H-carbazol-3-amine], the viability at 5 µM in assay [1] amounted to 4 ± 3%; in assay [2], 6 ± 1%.

Take `N[C@@H]1[C@@H](c2ccc(OC(F)(F)F)cc2)Cc2[nH]c3ccccc3c2[C@H]1CCNCC1CC1` [If, (2R,3R,4R)-4-{2-[(Cyclopropylmethyl)amino]ethyl}-2-[4-(trifluoromethoxy)phenyl]-2,3,4,9-tetrahydro-1H-carbazol-3-amine]: the viability at 5 µM in assay [1] is 11 ± 4%; in assay [2], 12 ± 3%.

Consider `CN[C@@H]1[C@@H](c2ccc(C)cc2)Cc2[nH]c3ccc(Cl)cc3c2[C@H]1CCNCC1CC1` [Iak, (2R,3R,4R)-6-Chloro-4-{2-[(cyclopropylmethyl)amino]ethyl}-N-methyl-2-(4-methylphenyl)-2,3,4,9-tetrahydro-1H-carbazol-3-amine], for which the viability at 5 µM in assay [1] was found to be 1 ± 1%; in assay [2] it was 7 ± 2%.

Consider `CCNCC[C@@H]1c2c([nH]c3ccccc23)C[C@H](c2ccc(C)cc2)[C@H]1N` [Iz, (2R,3R,4R)-4-[2-(Ethylamino)ethyl]-2-(4-methylphenyl)-2,3,4,9-tetrahydro-1H-carbazol-3-amine], for which the figures for the viability at 5 µM in assay [1] and in assay [2] were 8 ± 4% and 8 ± 3%, respectively.

In the case of `N[C@@H]1[C@@H](c2cccc(Cl)c2)Cc2[nH]c3ccccc3c2[C@H]1CCNCC1CC1` [Ih, (2R,3R,4R)-2-(3-Chlorophenyl)-4-{2-[(cyclopropylmethyl)amino]ethyl}-2,3,4,9-tetrahydro-1H-carbazol-3-amine], the viability at 5 µM in assay [1] is 25 ± 7%; in assay [2], 28 ± 10%.

In the case of `COc1ccccc1[C@H]1Cc2[nH]c3ccccc3c2[C@@H](CCNCC2CC2)[C@@H]1N` [Ik, (2R,3S,4R)-4-{2-[(Cyclopropylmethyl)amino]ethyl}-2-(2-methoxyphenyl)-2,3,4,9-tetrahydro-1H-carbazol-3-amine], the viability at 5 µM stood at 23 ± 3% in assay [1] and 30 ± 2% in assay [2].

With `N[C@@H]1[C@@H](c2ccccc2Cl)Cc2[nH]c3ccccc3c2[C@H]1CCNCC1CC1` [In, (2R,3S,4R)-2-(2-Chlorophenyl)-4-{2-[(cyclopropylmethyl)amino]ethyl}-2,3,4,9-tetrahydro-1H-carbazol-3-amine], the viability at 5 µM came to 29 ± 1% in assay [1] and 28 ± 4% in assay [2].

Turning to `N[C@@H]1[C@@H](c2ccc(Cl)cc2)Cc2[nH]c3ccccc3c2[C@H]1CCNCC1CC1` [Ii, (2R,3R,4R)-2-(4-Chlorophenyl)-4-{2-[(cyclopropylmethyl)amino]ethyl}-2,3,4,9-tetrahydro-1H-carbazol-3-amine], the viability at 5 µM in assay [1] is 13 ± 4%; in assay [2] it was 13 ± 1%.

`Cc1ccc([C@H]2Cc3[nH]c4ccc(Cl)cc4c3[C@@H](CCNCC3CC3)[C@@H]2N)cc1` [Iag, (2R,3R,4R)-6-Chloro-4-{2-[(cyclopropylmethyl)amino]ethyl}-2-(4-methylphenyl)-2,3,4,9-tetrahydro-1H-carbazol-3-amine]: the viability at 5 µM in assay [1] was 9 ± 5%; in assay [2], 10 ± 6%.

Consider `Cc1ccc([C@H]2Cc3[nH]c4ccccc4c3[C@@H](CCNCC3CC3)[C@@H]2N)cc1` [Ib, (2R,3R,4R)-4-{2-[(Cyclopropylmethyl)amino]ethyl}-2-(4-methylphenyl)-2,3,4,9-tetrahydro-1H-carbazol-3-amine], for which the viability at 5 µM was 16% in assay [1] and 20 ± 5% in assay [2].

Turning to `CNCC[C@@H]1c2c([nH]c3ccccc23)C[C@H](c2ccc(OC)cc2)[C@H]1N` [Iw, (2R,3R,4R)-2-(4-Methoxyphenyl)-4-[2-(methylamino)ethyl]-2,3,4,9-tetrahydro-1H-carbazol-3-amine], the viability at 5 µM in assay [1] was 27 ± 2%; in assay [2] it was 40 ± 15%.

Consider `COc1ccc([C@H]2Cc3[nH]c4ccc(Cl)cc4c3[C@@H](CCNCC3CC3)[C@@H]2N)cc1` [Iah, (2R,3R,4R)-6-Chloro-4-{2-[(cyclopropylmethyl)amino]ethyl}-2-(4-methoxyphenyl)-2,3,4,9-tetrahydro-1H-carbazol-3-amine], for which the viability at 5 µM was found to be 26 ± 12% in assay [1] and 16 ± 2% in assay [2].

For the molecule `COc1ccc2[nH]c3c(c2c1)[C@@H](CCNCC1CC1)[C@H](N)[C@@H](c1ccc(C)cc1)C3` [Iaf, (2R,3R,4R)-4-{2-[(Cyclopropylmethyl)amino]ethyl}-6-methoxy-2-(4-methylphenyl)-2,3,4,9-tetrahydro-1H-carbazol-3-amine], the viability at 5 µM came to 39 ± 6% in assay [1] and 60 ± 2% in assay [2].

As to `Cc1ccc([C@H]2Cc3[nH]c4ccccc4c3[C@@H](CCNC(C)C)[C@@H]2N)cc1` [Iy, (2R,3R,4R)-2-(4-Methylphenyl)-4-{2-[(propan-2-yl)amino]ethyl}-2,3,4,9-tetrahydro-1H-carbazol-3-amine], the figures for the viability at 5 µM in assay [1] and in assay [2] were 8% and 4 ± 4%, respectively.

For the molecule `Cc1ccc([C@H]2Cc3[nH]c4ccccc4c3[C@@H](CCNC3CC3)[C@@H]2N)cc1` [Iaa, (2R,3R,4R)-4-[2-(Cyclopropylamino)ethyl]-2-(4-methylphenyl)-2,3,4,9-tetrahydro-1H-carbazol-3-amine], the viability at 5 µM was 1 ± 1% in assay [1] and 2 ± 2% in assay [2].

As for `CN[C@H]1[C@H](c2ccc(OC)cc2)Cc2[nH]c3ccccc3c2[C@@H]1CCNCC1CC1` [Is, (2S,3S,4S)-4-{2-[(Cyclopropylmethyl)amino]ethyl}-2-(4-methoxyphenyl)-N-methyl-2,3,4,9-tetrahydro-1H-carbazol-3-amine], the viability at 5 µM in assay [1] amounted to 1%; in assay [2], 6 ± 1%.

`N[C@H]1[C@H](c2ccc(F)cc2)Cc2[nH]c3ccccc3c2[C@@H]1CCNCC1CC1` [Ip, (2S,3S,4S)-4-{2-[(Cyclopropylmethyl)amino]ethyl}-2-(4-fluorophenyl)-2,3,4,9-tetrahydro-1H-carbazol-3-amine]: the viability at 5 µM amounted to 7 ± 3% in assay [1] and 7 ± 2% in assay [2].

As to `Cc1ccc([C@H]2Cc3[nH]c4ccc(F)cc4c3[C@@H](CCNCC3CC3)[C@@H]2N)cc1` [Iaj, (2R,3R,4R)-4-{2-[(Cyclopropylmethyl)amino]ethyl}-6-fluoro-2-(4-methylphenyl)-2,3,4,9-tetrahydro-1H-carbazol-3-amine], the viability at 5 µM was determined as 7 ± 1% in assay [1] and 4 ± 1% in assay [2].

Consider `COc1ccc([C@@H]2Cc3[nH]c4ccccc4c3[C@H](CCNCC3CC3)[C@H]2N)cc1` [Id, (2S,3S,4S)-4-{2-[(Cyclopropylmethyl)amino]ethyl}-2-(4-methoxyphenyl)-2,3,4,9-tetrahydro-1H-carbazol-3-amine], for which the viability at 5 µM in assay [1] turned out to be 33 ± 5%; in assay [2], 40%.

On to `N[C@@H]1[C@@H](c2ccc(C(F)(F)F)cc2)Cc2[nH]c3ccccc3c2[C@H]1CCNCC1CC1` [Ie, (2R,3R,4R)-4-{2-[(Cyclopropylmethyl)amino]ethyl}-2-[4-(trifluoromethyl)phenyl]-2,3,4,9-tetrahydro-1H-carbazol-3-amine], for which the viability at 5 µM turned out to be 14 ± 5% in assay [1] and 13 ± 3% in assay [2].

For the molecule `Cc1ccccc1[C@H]1Cc2[nH]c3ccccc3c2[C@@H](CCNCC2CC2)[C@@H]1N` [Im, (2R,3R,4R)-4-{2-[(Cyclopropylmethyl)amino]ethyl}-2-(2-methylphenyl)-2,3,4,9-tetrahydro-1H-carbazol-3-amine], the viability at 5 µM in assay [1] was found to be 36 ± 8%; in assay [2], 61 ± 7%.

On to `N[C@@H]1[C@@H](c2ccc(F)cc2)Cc2[nH]c3ccccc3c2[C@H]1CCNCC1CC1` [Io, (2R,3R,4R)-4-{2-[(Cyclopropylmethyl)amino]ethyl}-2-(4-fluorophenyl)-2,3,4,9-tetrahydro-1H-carbazol-3-amine], for which the viability at 5 µM in assay [1] amounted to 16 ± 1%; in assay [2], 13 ± 5%.

Regarding `Cc1ccc([C@H]2Cc3[nH]c4ccccc4c3[C@@H](CCNCC(C)C)[C@@H]2N)cc1` [Ix, (2R,3R,4R)-2-(4-Methylphenyl)-4-{2-[(2-methylpropyl)amino]ethyl}-2,3,4,9-tetrahydro-1H-carbazol-3-amine], the viability at 5 µM in assay [1] and in assay [2] was 0% throughout.

As for `Cc1ccc([C@H]2Cc3[nH]c4ccc(Cl)cc4c3[C@@H](CCNCC3CC(F)(F)C3)[C@@H]2N)cc1` [Iab, (2R,3R,4R)-6-Chloro-4-(2-{[(3,3-difluorocyclobutyl)methyl]amino}ethyl)-2-(4-methylphenyl)-2,3,4,9-tetrahydro-1H-carbazol-3-amine], the figures for the viability at 5 µM in assay [1] and in assay [2] were 17 ± 4% and 14 ± 8%, respectively.

As usually defined, the viability is a read-out of living cells in per cent, often relative to untreated cells.
